The structures appear in SMILES notation.

The target of assay [1] is T1, EP2 (Homo sapiens, UniProt P43116). Nature of the assay: EP2 cAMP. Format: cell-based.
The target of assay [2] is T1, EP2. Briefly: EP2 competition binding ([3H]PGE2), Ki. Further details: expressed in transfected cells; host or cells: HEK 293. As to conditions: HEK 293 cells stably expressing human EP2, [3H]PGE2. As to the method:
Competition binding experiments are performed in a medium containing Hank's balanced salt solution, Hepes 20 mM, pH 7.3, membranes (˜60 μg protein) or 2×10^5 cells from HEK 293 cells stably expressing human EP2 receptors, [^3H]PGE2 (10 nM) and various concentrations of test compounds in a total volume of 300 μl. Reaction mixtures are incubated at 23° C. for 60 min, and are filtered over Whatman GF/B filters under vacuum. Filters are washed three times with 5 ml ice-cold buffer containing 50 mM Tris/HCl (pH 7.3). Non-specific binding is estimated in the presence of excess unlabeled PGE2 (10 μM). Binding data fitted to the binding model for a single class of binding sites, using nonlinear regression analysis. IC50 values thus obtained are converted to Ki using the equation of Ki=(IC50/(1+[L]/KD) where [L] represents PGE2 concentration (10 nM) and KD the dissociation constant for [^3H]PGE2 at human EP2 receptors (40 nM). […]
The cell homogenate is centrifuged at 19000 r.p.m. for 20 min at 4° C. using a Beckman Ti-60 rotor. The resultant pellet is resuspended in TME buffer to give a final 1 mg/ml protein concentration, as determined by Biorad assay. […]
[^3H-] […] 17-phenyl PGF2[…] and non-specific binding determined with 10^−5M of unlabeled PGE2, or 17-phenyl PGF2α, according to receptor subtype studied.

Another assay addresses T2, hDP/Gqs5 (Homo sapiens, UniProt Q13258).
T2 construct: expressed in transfected cells; host or cells: HEK-293(EBNA)
T2 sequence (Q13258 1-359): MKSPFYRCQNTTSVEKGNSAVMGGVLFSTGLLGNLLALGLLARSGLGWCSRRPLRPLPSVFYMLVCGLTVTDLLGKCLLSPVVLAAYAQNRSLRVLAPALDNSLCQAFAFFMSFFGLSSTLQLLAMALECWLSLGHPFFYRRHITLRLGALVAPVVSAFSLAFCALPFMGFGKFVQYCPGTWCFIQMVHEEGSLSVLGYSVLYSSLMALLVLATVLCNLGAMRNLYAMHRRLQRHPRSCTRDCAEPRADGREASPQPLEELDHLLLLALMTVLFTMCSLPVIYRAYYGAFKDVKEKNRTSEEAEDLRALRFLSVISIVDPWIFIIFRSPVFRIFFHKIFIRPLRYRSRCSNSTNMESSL
Nature of the assay: FLIPR calcium signal, hDP. Type of assay: cell-based. As to conditions: HEK-293(EBNA) cells; read-out: Other Receptors (EC50 in nM) hDP. As to the method: (§1) HEK-293(EBNA) cells, stably expressing one type or subtype of recombinant human prostaglandin receptors (prostaglandin receptors expressed: hDP/Gqs5; hEP1; hEP2/Gqs5; hEP3A/Gqi5; hEP4/Gqs5; hFP; hIP; hTP), are cultured in 100 mm culture dishes in high-glucose DMEM medium containing 10% fetal bovine serum, 2 mM I-glutamine, 250 μg/ml geneticin (G418) and 200 μg/ml hygromycin B as selection markers, and 100 units/ml penicillin G, 100 μg/ml streptomycin and 0.25 μg/ml amphotericin B.
(§2) Cells are seeded at a density of 5×10^4 cells per well in Biocoat® Poly-D-lysine-coated black-wall, clear-bottom 96-well plates (Becton-Dickinson) and allowed to attach overnight in an incubator at 37° C. Cells are then washed two times with HBSS-HEPES buffer (Hanks Balanced Salt Solution without bicarbonate and phenol red, 20 mM HEPES, pH 7.4) using a Denley Cellwash plate washer (Labsystems). […]
(§3) Cells are excited with an Argon laser at 488 nm, and emission is measured through a 510-570 nm bandwidth emission filter (FLIPR™, Molecular Devices, Sunnyvale, Calif.). […] The peak increase in fluorescence intensity is recorded for each well. […] The peak fluorescence change in each drug-containing well is then expressed relative to the controls. […]

For the next assay, the target named is T3, hEP3A/Gqi5 (Homo sapiens, UniProt P43115).
T3 construct: expressed in transfected cells; host or cells: HEK-293(EBNA)
T3 sequence (P43115 1-390): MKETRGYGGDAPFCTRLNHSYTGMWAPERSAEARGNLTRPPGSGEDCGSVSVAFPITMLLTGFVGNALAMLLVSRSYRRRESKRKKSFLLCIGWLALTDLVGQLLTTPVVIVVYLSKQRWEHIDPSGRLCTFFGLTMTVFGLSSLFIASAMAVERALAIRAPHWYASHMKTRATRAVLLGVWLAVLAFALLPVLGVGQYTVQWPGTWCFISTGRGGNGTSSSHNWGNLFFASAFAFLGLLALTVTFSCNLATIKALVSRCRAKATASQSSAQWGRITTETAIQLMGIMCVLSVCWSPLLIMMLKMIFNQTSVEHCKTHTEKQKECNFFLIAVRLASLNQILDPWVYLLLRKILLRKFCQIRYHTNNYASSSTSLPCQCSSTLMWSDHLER
Nature of the assay: FLIPR calcium signal, hEP3A. Format: cell-based. As to conditions: HEK-293(EBNA) cells; read-out: Other Receptors (EC50 in nM) hEP3A. As to the method:
as §1, §2, §3

For the next assay, the target named is T4, hEP2/Gqs5 (Homo sapiens, UniProt P43116).
T4 construct: expressed in transfected cells; host or cells: HEK-293(EBNA)
T4 sequence (P43116 whole entry): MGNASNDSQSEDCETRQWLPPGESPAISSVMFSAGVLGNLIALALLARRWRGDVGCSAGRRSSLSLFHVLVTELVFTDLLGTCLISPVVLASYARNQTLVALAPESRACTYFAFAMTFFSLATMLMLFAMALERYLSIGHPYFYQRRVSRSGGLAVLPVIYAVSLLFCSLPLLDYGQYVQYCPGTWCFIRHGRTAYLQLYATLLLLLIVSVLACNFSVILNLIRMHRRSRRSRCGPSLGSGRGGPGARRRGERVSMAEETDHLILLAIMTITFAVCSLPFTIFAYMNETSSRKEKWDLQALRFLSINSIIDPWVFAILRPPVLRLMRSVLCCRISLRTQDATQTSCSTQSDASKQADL
Nature of the assay: EP2 FLIPR calcium signal. Format: cell-based. As to conditions: HEK-293(EBNA) cells. As to the method:
as §1, §2, §3

T1 sequence (P43116 whole entry): as above

On to `CCCCCC(F)c1ccc(N2C(=O)OC[C@@H]2COCc2ccc(C(=O)O)s2)cc1` (stereo partly drawn) [5-{(S)-3-[4-(1-Fluoro-hexyl)-phenyl]-2-oxo-oxazolidin-4-ylmethoxymethyl}-thiophene-2-carboxylic acid], for which, on EP2 [1], the EC50 (as a rule, the concentration at which the effect is half-maximal) turned out to be 13 nM. Also, the Ki (in general, the dissociation constant of the complex between target and ligand, obtained from inhibition or displacement) at EP2 [2] came out at 1040 nM.
As to `CCCCCC(O)c1ccc(N2C(=O)OC[C@@H]2COCc2ccc(C(=O)O)s2)cc1` (stereo partly drawn) [5-{(S)-3-[4-(1-Hydroxy-hexyl)-phenyl]-2-oxo-oxazolidin-4-ylmethoxymethyl}-thiophene-2-carboxylic acid], the EC50 at hDP/Gqs5 is above 10000 nM; on hEP3A/Gqi5 it was 995 nM; at EP2 [1] it was 14 nM; on hEP2/Gqs5, 817 nM. The compound also returned an inhibition constant Ki at EP2 [2] of 2710 nM.

The record behind these values is patent US7553860B2, “Substituted gamma lactams as therapeutic agents” (Allergan, Inc., priority 2006, dated 2009).
